In patent US20220228120A1, “Cardiomyocyte Compositions and Use Thereof” (UNIVERSITY HEALTH NETWORK, priority 2019, published 2022):

How the values were obtained:
Assay type in all cases: cell-based, human
[1] = test system: hPSC-derived ventricular cardiomyocytes; experiment: Cardiomyocyte proliferation/expansion, factors added day 10 to day 16; conditions: CHIR 1 μM or IGF2 25 ng/ml
Procedure: The EBs were dissociated as described above. The following antibodies were used for staining: mouse anti-Ki67 (DAKO, 1:100) and rabbit anti-cardiac isoform of cTNT (ThermoFisher Scientific, 1:500). The following secondary antibodies were used for detection: donkey anti-mouse IgG-APC (BD Pharmigen™, 1:500), or donkey anti-rabbit IgG-PE (Jackson ImmunoResearch, 1:500). Detailed antibody information is described in the Key Resources Table. Cells were fixed for 20 mins at 4 C with 4% PFA in PBS followed by permeabilization using 90% methanol for 20 mins at 4° C. Cells were washed with PBS containing 0.5% BSA (Sigma) and stained with unconjugated primary antibodies in FACS buffer overnight at 4° C. Stained cells were washed with PBS with 0.5% BSA and stained with secondary antibodies in FACS buffer for 30 mins at 4° C. Stained cells were analyzed using the LSR II Flow cytometer (BD PharMingen™). Data were analyzed using FlowJo™ software (Tree Star). At day 5, the EBs were transferred to StemPro™-34 with rhVEGF (5 ng/ml) for another 5 days and then to DMEM high glucose (Life Technologies) with 0.5 mg/mL human serum albumin (Sigma), ascorbic acid, transferrin, insulin (10 ng/ml, Sigma), CHIR (1 μM, Bio-Techne), and IGF2 (25 ng/ml, Bio-Techne) from day 10 to day 16. […] The cells were then harvested, counted, and analyzed for expression of compact and trabecular genes by RT-qPCR. […]

[2] = test system: compact ventricular populations; experiment: cTNT and Ki67 flow cytometry after 2 days XAV (day 18)
Procedure: The EBs were dissociated by incubation in Collagenase type 2 (0.5 mg/ml, Worthington) in HANKs buffer overnight at room temperature followed by TrypLE™ for 5 mins at 37° C. The following antibodies were used for staining: anti-SIRPa-PeCy7 (Biolegend, 1:1000), anti-CD36-FITC (BD PharMingen™, 1:200), anti-LDLR-BV421 (BD PharMingen™, 1:100), anti-cardiac isoform of cTNT (ThermoFisher Scientific, 1:2000), or anti-myosin light chain 2 (Abcam,1:1000). For unconjugated primary antibodies, the following secondary antibodies were used for detection: goat anti-mouse IgG-APC (BD PharMingen™, 1:500), or donkey anti-rabbit IgG-PE (Jackson ImmunoResearch, 1:500). Detailed antibody information is described in the Key Resources Table. For cell-surface marker analyses, cells were stained for 30 min at 4° C. in FACS buffer consisting of PBS with 5% fetal calf serum (FCS) (Wisent) and 0.02% sodium azide. For intracellular staining, cells were fixed for 20 mins at 4° C. with 4% PFA in PBS followed by permeabilization using 90% methanol for 20 mins at 4° C. Cells were washed with PBS containing 0.5% BSA (Sigma) and stained with unconjugated primary antibodies in FACS buffer overnight at 4° C. Stained cells were washed with PBS with 0.5% BSA and stained with secondary antibodies in FACS buffer for 30 mins at 4° C. Stained cells were analyzed using the LSR II Flow cytometer (BD PharMingen™). Data were analyzed using FlowJo™ software (Tree Star).
The EBs were dissociated as described above. The following antibodies were used for staining: mouse anti-Ki67 (DAKO, 1:100) and rabbit anti-cardiac isoform of cTNT (ThermoFisher Scientific, 1:500). The following secondary antibodies were used for detection: donkey anti-mouse IgG-APC (BD Pharmigen™, 1:500), or donkey anti-rabbit IgG-PE (Jackson ImmunoResearch, 1:500). Detailed antibody information is described in the Key Resources Table. […] Stained cells were analyzed using the LSR II Flow cytometer (BD PharMingen™). Data were analyzed using FlowJo™ software (Tree Star). […]

[3] = test system: HEY2, MYCN, ANF, BMP10 expression; experiment: RT-qPCR of compact and trabecular markers after 6 days with factors; conditions: factors day 10-16
Procedure: (§1) Total RNA from samples was isolated using RNAqueous™-micro Kit including RNase-free DNase treatment (invitrogen). RNA from dissected ventricular and atrial tissue of human fetal hearts was isolated using the TRIzol® method (ThermoFisher) and treated with DNase (Ambion®). Isolated RNA was reverse transcribed into cDNA using oligo (dT) primers and random hexamers and iScript™ Reverse Transcriptase (ThermoFisher). QRT-PCR was performed on an EP Real-Plex MasterCycler® (Eppendorf®) using QuantiFast® SYBR Green PCR kit (QIAGEN). The copy number of each gene relative to the house keeping gene TBP.
For these studies, we used our previously published protocol to generate cardiomyocytes (Lee, supra). […] Using this timeframe as an indication of the proliferative stage of ventricular development, between days 10 and 16 of differentiation, we added the small molecule GSK-3 inhibitor CHIR-99021 (“CHIR”; a WNT pathway agonist), or IGF2, or both, to the day 10 cell population (FIG. 1D). As a control, we added neuregulin 1 (NRG) to the cultures as it promotes the development of the trabecular myocardium in the developing heart (see, e.g., Del Monte-Nieto et al., Nature (2018) 557(7705):439-45; and Odiete et al., Circ Res. (2012) 111(10):1376-85). The cells were cultured with these factors for 6 days. The cells were then harvested, counted, and analyzed for expression of compact and trabecular genes by RT-qPCR. […] The addition of both factors promoted the greatest expansion in cell number, resulting in a 2-fold increase. […] It had little effect on HEY2, which was already expressed at reasonable levels within the population. IGF2 signaling had no effect on the expression of these genes. Addition of NRG reduced the expression of HEY2 and increased the expression of ANF, indicative of specification of a trabecular fate.

[4] = test system: CD36^+SIRPA^+ compact cardiomyocytes; experiment: Flow cytometric analyses of CD36 and SIRPA expression
Procedure: The EBs were dissociated by incubation in Collagenase type 2 (0.5 mg/ml, Worthington) in HANKs buffer overnight at room temperature followed by TrypLE™ for 5 mins at 37° C. The following antibodies were used for staining: anti-SIRPa-PeCy7 (Biolegend, 1:1000), anti-CD36-FITC (BD PharMingen™, 1:200), anti-LDLR-BV421 (BD PharMingen™, 1:100), anti-cardiac isoform of cTNT (ThermoFisher Scientific, 1:2000), or anti-myosin light chain 2 (Abcam,1:1000). For unconjugated primary antibodies, the following secondary antibodies were used for detection: goat anti-mouse IgG-APC (BD PharMingen™, 1:500), or donkey anti-rabbit IgG-PE (Jackson ImmunoResearch, 1:500). Detailed antibody information is described in the Key Resources Table. […] Stained cells were analyzed using the LSR II Flow cytometer (BD PharMingen™). Data were analyzed using FlowJo™ software (Tree Star).
To evaluate the capacity of the day 18 compact cardiomyocytes to undergo FAO, we analyzed them for expression of the fatty acid transporter CD36, which is essential for transporting fatty acid into cells (FIG. 2B). Given that most mature cardiomyocytes in the human heart express CD36, flow cytometric analyses of this transporter would provide rapid quantitative measure of the maturation status of these cells.

FAO-related genes = experiment: RT-qPCR of FAO-related, mitochondrial and maturation genes in day 32 compact cardiomyocytes
Procedure: as §1

[5] = test system: hPSC-derived ventricular cardiomyocytes; experiment: HEY2/ANF immunostaining of day 16 ventricular population; conditions: day 16 population
Procedure: The EBs were dissociated as described above and the cells were plated onto 24 well culture dishes pre-coated with Matrigel™ (25% v/v, BD PharMingen™). Cells were cultured for 2-3 days and were fixed with 4% PFA in PBS for 15 min at room temperature. Cells were permeabilized and blocked with PBS containing 5% donkey serum, 0.1% TritonX™. The following antibodies were used for staining: mouse anti-cardiac isoform of cTNT (ThermoFisher Scientific, 1:200), rabbit anti-human HEY2 (Proteintech, 1:100), mouse anti-human ANF (Abcam, 1:100), rabbit anti-human cTNT (Abcam, 1:200), or rabbit anti-human CD90 (Abcam, 1:200). For detecting unconjugated primary antibodies, the following secondary antibodies were used: donkey anti-mouse IgG-Alexa Fluor™ 488 (ThermoFisher, 1:500), donkey anti-rabbit IgG-Alexa Fluor™ 555 (ThermoFisher, 1:500), donkey anti-rabbit IgG-Alexa488 (ThermoFisher, 1:500), donkey anti-mouse IgG-Alexa Fluor™ 555 (ThermoFisher, 1:500). Detailed antibody information is described in the Key Resources Table. Cells were stained with primary antibodies in staining buffer consisting of PBS with 0.1% TritonX, and 5% donkey serum overnight at 4° C. The stained cells were washed with PBS. […] Stained cells were analyzed using an EVOS Microscope (ThermoFisher) and Zeiss LSM700 confocal microscope (Zeiss).

Compound: Cc1c[nH]c(-c2cnc(NCCNc3ccc(C#N)cn3)nc2-c2ccc(Cl)cc2Cl)n1 [CHIR, 6-((2-((4-(2,4-Dichlorophenyl)-5-(4-methyl-1H-imidazol-2-yl)pyrimidin-2-yl)amino)ethyl)amino)nicotinonitrile]
- proportion of Ki67^−cTNT^+ cardiomyocytes detected at day 16 [1]: significant increase
- proportion of cTNT^+ cells in the population ([2]; XAV(−) vs. ventricular control, day 18): reduction
- expression of ANF [3]: decrease
- expression of BMP10 [3]: decrease
- expression of HEY2 [3]: little effect
- expression of MYCN [3]: significant increase
- expression of the fatty acid transporter CD36 [3]: reduced
- expression of the glucose transporter GLUT1 [3]: increased

Compound: CC(C)(Sc1ccc(CCN(CCCCC2CCCCC2)C(=O)NC2CCCCC2)cc1)C(=O)O [GW7647]
- size of CD36+ population detected at day 32 ([4]; 1 μM added to day 18 CMs): significant increase

Compound: O=c1[nH]c(-c2ccc(C(F)(F)F)cc2)nc2c1CSCC2 [XAV, 2-(4-(trifluoromethyl)phenyl)-7,8-dihydro-5H-thiopyrano[4,3-d]pyrimidin-4-ol]
- proportion of Ki67^+ cells in the population ([2]; XAV following the CHIR/IGF2-induced proliferative stage): significantly reduced
- proportion of the non-cardiomyocytes ([2]; XAV for 2 days after CHIR/IGF2): reduction

Compound: CCCCCCCCCCCCCCCC(=O)O [palmitate]
- expression of mitochondrial/electron transport chain genes ATP5A1, COX7A1, CKMT2 (FAO-related genes): no effect
- expression of FAO pathway components CD36, FABP3, CPT1B, MLYCD (FAO-related genes; vs untreated populations): no effect
- level of ACC2 (FAO-related genes; vs untreated populations): no effect

Compound: N[C@@H](Cc1cc(I)c(Oc2ccc(O)c(I)c2)c(I)c1)C(=O)O [thyroid hormone (T3), triiodothyronine]
- effect on CD36 expression among other pathways tested ([4]; only observed in the presence of PPARα signaling): largest effect

Compound: insulin-like growth factor 2 [IGF2]
- proportion of Ki67^−cTNT^+ cardiomyocytes detected at day 16 [1]: significant increase
- expression of ANF [3]: no effect
- expression of BMP10 [3]: no effect
- expression of HEY2 [3]: no effect
- expression of MYCN [3]: no effect

Compound: neuregulin 1 [NRG]
- expression of ANF [3]: increased
- expression of HEY2 [3]: reduced
- ANF+ cells by immunostaining [5]: presence
- HEY+ compact cells by immunostaining [5]: lack
